Data taken from patent US20260091012A1, “Methods Of Treating Meduloblastoma With Thyroid Hormone” (Institute For Cancer Research d/b/a The Research Institute …, priority 2022, published 2026).

Assays:
[1] = test system: MB cells isolated from Math1-Cre/Ptch1^fl/fl tumor mice; test: Cell Counting Kit-8 (CCK8) assay of MB cells, T3 and cisplatin; format: cell-based, mouse
Protocol: MB cells were treated with vehicle (DMSO) as a control. […] The survival of MB cells was measured by Cell Counting Kit-8 (CCK8) following the treatment.

[2] = test system: RCMB28 cells
Protocol: (§1) GDC0449 (50 mg/kg) diluted using MCT and administrated to mice by oral gavage once a day. […] Log-rank survival analyses were performed in GraphPad Prism 9.
(§2) MB cells were stereotaxically injected into the cerebellum of 6- to 8-week-old SCID mice. Before transplantation, MB cells were infected with lentivirus carrying firefly luciferase for 24 hours. For transplantation with MB cells after the virus infection, the cell suspension was centrifuged at 1000 rpm for 5 minutes to remove the supernatant. 1×10^6 cells (based on Trypan blue staining) were injected into the cerebellum of each mouse. Animals were monitored weekly using in vivo bioluminescence imaging.
G3-MB PDOXs were generated by intracranial transplantation of RCMB28 cells transduced with a luciferase expressing construct.

[3] = test system: MB ptch−/− cells; test: EdU incorporation, proliferation of MB ptch−/− cells; format: cell-based, mouse; conditions: NB-B22 cultured MB ptch−/− cells, different concentrations of T3, 48 hours; inhibition concentration dependent
From the text: (§3) MB cells were isolated from Math1-Cre/Ptch1^fl/fl, Math1-Cre/Ptch1^fl/fl/Cas9 and SmoM2 tumor-bearing mice at 6 to 8 weeks of age, respectively. Tumor tissue was dissociated in a papain solution to obtain a single-cell suspension and then centrifuged through a 35% and 65% Percoll gradient. Cells from the 35% to 65% interface were suspended in Dulbecco's PBS (DPBS) plus 0.5% BSA. Cells were then suspended in NB-B22 (B22 supplement followed protocol in Jacob Hanna's lab) and plated on poly-D-lysine (PDL)-coated coverslips (BD Biosciences). D283, D341 and MB-shh cell lines were cultured in DMEM with 10% fetal bovine serum, 1% Pen/Strep and 2 mM L-glutamine (Invitrogen).
as §1
(§4) The EdU incubated cells were cultured at 1 μM in culture medium for 1 hour. 4% PFA was used to fix the cells for 10 minutes. The cells were incubated with the staining solution for 20 minutes in the dark. The cells were washed with PBST for 5 minutes/time for 3 times.
The inhibition was concentration dependent. The percentage of EdU+ cells in the culture were quantified (see, FIG. 1, Panel B). DAPI was used to counterstain cell nuclei.

[4] = test system: Shh type PDX-luciferase cells; test: Human shh type MB PDX-luciferase growth in cerebellum of SCID mice (bioluminescence); format: in vivo; conditions: SCID mice treated by T3 for 3 weeks vs untreated controls
Protocol: as §1, §2

[5] = test system: D341; test: EdU incorporation, proliferation of human MB group3 cell line D341; format: cell-based; conditions: D341, T3, 72 hours
From the text: as §3, §4
(§5) The percentage of EdU+ cells in the culture was quantified (see, FIG. 6, Panel A). […] The percentage of EdU+ cells in the culture was quantified (see, FIG. 6, Panel B). […] The percentage of EdU+ cells in the culture were quantified (see, FIG. 6, Panel C). […] Thus, thyroid hormone may be used to treat different type of medulloblastoma.

[6] = test system: Math1-Cre/Ptch1^fl/fl tumor mice; test: Survival and tumor markers in Math1-Cre/Ptch1fl/fl tumor mice; format: in vivo, mouse
Protocol: (§6) Math1-Cre mice, Ptch1^fl/fl mice, R26-SmoM2 mice, Math1-CreER mice, CAG-Cas9 mice and were purchased from the Jackson Laboratory. All mice were bred and genotyped as recommended by the Jackson Laboratory. CB17/SCID mice were bred in the Fox Chase Cancer Center Laboratory Animal Facility (LAF).
as §1

[7] = test system: D283; test: EdU incorporation, proliferation of human MB group3 cell line D283; format: cell-based; conditions: D283, T3, 72 hours
From the text: as §3, §4, §5

[8] = test system: MB cells; test: Immunostaining of differentiation marker MAP2 in MB cells; format: cell-based, mouse; conditions: MB cells treated by T3 for 48 hours
Protocol: Immunofluorescent staining of cells was carried out according to standard methods. Briefly, cells were blocked and permeabilized for 1 hour with PBS containing 0.1% Triton X-100 and 10% normal goat serum, stained with primary antibodies (1:400) overnight at 4° C. and incubated with secondary antibodies (1:500) for 1 hour. Cells were counterstained with DAPI and mounted with Fluoromount-G (Southern Biotech) before being visualized using a Nikon Eclipse Ti microscope.

[9] = test system: SmoM2 tumor mice; test: Survival and tumor markers in SmoM2 tumor mice; format: in vivo, mouse
Protocol: as §6, §1
Conversely, pHH3, a cell proliferation maker, was decreased in T3-treated mice tumor tissues (see, FIG. 5, Panel B).

[10] = test system: Group3 (Ms)MB cells; test: EdU incorporation, proliferation of MB group3 (Mouse) cells; format: cell-based; conditions: T3, 72 hours
Protocol: as §4, §5

[11] = T3 200 ng/g i.p. twice a day vs without T3
[12] = T3-treated mice, immunohistochemistry

Compound	cell proliferation / survival of MB cells (CCK8) ([1]; cisplatin alone at seven different concentrations vs vehicle (DMSO))	survival of recipient mice ([2]; T3 i.p. compared with PBS treatment, p<0.01)	tumor progression in recipient mice ([2]; T3 i.p. vs PBS, after tumors were established)	median survival ([2]; T3 i.p., PBS treatment 15 days, p<0.01)	proliferation of medulloblastoma cells (percentage of EdU+ cells) [3]	MB growth (in vivo bioluminescence) [4]	proliferation of group3 tumor cells (percentage of EdU+ cells) [5]	mice survival [6, 11]	tumor progression in vivo ([6]; T3-treated mice)	NeuN (differentiation marker) expression in tumor tissues [6, 12]	pHH3 (cell proliferation marker) in tumor tissues [6, 12]	proliferation of group3 tumor cells (percentage of EdU+ cells) [7]	MAP2 expression (differentiation marker) [8]	mice survival [9, 11]	NeuN (differentiation marker) expression in tumor tissues [9, 12]	pHH3 (cell proliferation marker) in tumor tissues [9, 12]	proliferation of group3 tumor cells (percentage of EdU+ cells) [10]	MB cell proliferation (CCK8) ([1]; T3 alone at two concentrations vs vehicle (DMSO))
N.N.[Cl][Pt][Cl] [cisplatin]	inhibited cell proliferation significantly except 31.23 nM and 62.5 nM	–	–	–	–	–	–	–	–	–	–	–	–	–	–	–	–	–
N[C@@H](Cc1cc(I)c(Oc2ccc(O)c(I)c2)c(I)c1)C(=O)O [T3, triiodothyronine]	–	significantly prolonged	significantly repressed	undefined	significantly inhibited	significantly inhibited	significantly inhibited	prolonged	repressed tumor progression	enhanced expression	decreased	significantly inhibited	increased	prolonged	enhanced expression	decreased	significantly inhibited	decreased
